Values of other authors as cited in patent EP4632015A1, “COMPOUNDS FOR USE IN IN VIVO FLUORESCENCE-LIFETIME IMAGING” (Université de Bourgogne, priority 2024, dated 2025).

Conditions: in a biological environment

SMILES | lifetime
CC1(C)C(/C=C/C=C/C=C/C=C2\N(CCCCS(=O)(=O)[O-])c3ccc4ccccc4c3C2(C)C)=[N+](CCCCS(=O)(=O)[O-])c2ccc3ccccc3c21.[Na+] [ICG] | less than 1 ns
CC1(C)C(=CC=C2CCCC(C=CC3=[N+](CCCCCC(=O)[O-])c4ccc(S(=O)(=O)[O-])cc4C3(C)C)=C2Oc2ccc(S(=O)(=O)[O-])cc2)N(CCCCS(=O)(=O)[O-])c2ccc(S(=O)(=O)[O-])cc21.[Na+].[Na+].[Na+].[Na+] [IRDye800CW] | less than 1 ns
